Data from patent publication US20240082347A1, “TREATMENT OF CORONAVIRUS” (priority 2021, published 2024).
“Also recorded” adds a separate entry of the source.

Tests used:
[1] = system: SARS-CoV-2 binding to Human Aortic Endothelial Cells (HAoEC); assay type: cell-based
[2] = system: SARS-CoV-2 binding to human colorectal epithelial cells (Caco-2); assay type: cell-based
[3] = system: sheared HAoEC; experiment: Transwell permeability assay (FITC-Dextran) after SARS-CoV-2 infection; assay type: cell-based, human; conditions: 0.0005 μM; SARS-CoV-2 infection 24 hours; FIG. 5A
[4] = system: VE-Cadherin expression on sheared HAoEC; assay type: cell-based, human; conditions: 0.0005 μM
[5] = system: VE-Cadherin in endothelial cells; experiment: SDS-PAGE and Western blot of VE-Cadherin after ex vivo infection assay; assay type: cell-based, human; conditions: healthy, infected and treated cells; 0.0005 μM
Method: Following the ex vivo infection assay, endothelial cells were lysed in RIPA buffer and stored at −20° C. until use. Samples were separated on a 10% SDS-PAGE gel. Following this, proteins were transferred onto a nitrocellulose membrane and blocked for 1 hour using 5% skimmed milk. The membrane was probed using anti-VE Cadherin primary antibody (Clone: F-8, Cat. No: sc-9989, 1:200, SantaCruz) and anti-GAPDH primary antibody (6000-4-1 mouse mAB, 1:2000, ProteinTech), overnight at 4° C. Anti-mouse IgG secondary antibodies (sc525405, 1:5000, SantaCruz) were used the following day. Proteins were detected using chemiluminescence.

[6] = molecular target: T1, Recombinant integrin αVβ3 (binding of SARS-CoV-2 spike protein) (Homo sapiens, UniProt P05106+P06756); experiment: Fluorescent-based protein interaction assay, spike protein and αVβ3; conditions: FIG. 8
T1 construct: purchased BioTechne 3050-AV-050
T1 sequence (P06756 31-992 limits assumed): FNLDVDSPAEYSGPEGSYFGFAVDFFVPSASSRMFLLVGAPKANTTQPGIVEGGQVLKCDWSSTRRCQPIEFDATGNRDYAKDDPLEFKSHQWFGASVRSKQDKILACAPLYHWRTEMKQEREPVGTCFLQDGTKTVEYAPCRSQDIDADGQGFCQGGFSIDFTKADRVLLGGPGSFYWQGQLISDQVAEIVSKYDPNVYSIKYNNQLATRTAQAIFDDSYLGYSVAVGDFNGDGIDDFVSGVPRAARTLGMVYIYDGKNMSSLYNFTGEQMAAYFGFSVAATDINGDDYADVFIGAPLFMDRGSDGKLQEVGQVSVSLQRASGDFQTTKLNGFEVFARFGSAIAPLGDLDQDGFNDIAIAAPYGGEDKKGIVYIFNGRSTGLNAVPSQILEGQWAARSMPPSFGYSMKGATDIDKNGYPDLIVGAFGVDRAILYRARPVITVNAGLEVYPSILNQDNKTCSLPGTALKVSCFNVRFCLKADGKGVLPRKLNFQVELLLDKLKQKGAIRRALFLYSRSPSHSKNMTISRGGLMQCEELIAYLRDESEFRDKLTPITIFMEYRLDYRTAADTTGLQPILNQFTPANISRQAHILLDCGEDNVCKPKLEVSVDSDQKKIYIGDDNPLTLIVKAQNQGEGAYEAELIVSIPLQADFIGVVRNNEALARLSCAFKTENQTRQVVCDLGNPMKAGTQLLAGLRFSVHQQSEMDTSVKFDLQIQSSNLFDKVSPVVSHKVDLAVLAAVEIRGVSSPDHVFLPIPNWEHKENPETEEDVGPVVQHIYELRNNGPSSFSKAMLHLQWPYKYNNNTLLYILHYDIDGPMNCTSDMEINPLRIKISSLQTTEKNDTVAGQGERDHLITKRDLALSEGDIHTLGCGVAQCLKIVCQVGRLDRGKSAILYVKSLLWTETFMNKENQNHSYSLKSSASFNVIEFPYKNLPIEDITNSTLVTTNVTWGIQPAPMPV
T1 sequence (P05106 27-718 limits assumed): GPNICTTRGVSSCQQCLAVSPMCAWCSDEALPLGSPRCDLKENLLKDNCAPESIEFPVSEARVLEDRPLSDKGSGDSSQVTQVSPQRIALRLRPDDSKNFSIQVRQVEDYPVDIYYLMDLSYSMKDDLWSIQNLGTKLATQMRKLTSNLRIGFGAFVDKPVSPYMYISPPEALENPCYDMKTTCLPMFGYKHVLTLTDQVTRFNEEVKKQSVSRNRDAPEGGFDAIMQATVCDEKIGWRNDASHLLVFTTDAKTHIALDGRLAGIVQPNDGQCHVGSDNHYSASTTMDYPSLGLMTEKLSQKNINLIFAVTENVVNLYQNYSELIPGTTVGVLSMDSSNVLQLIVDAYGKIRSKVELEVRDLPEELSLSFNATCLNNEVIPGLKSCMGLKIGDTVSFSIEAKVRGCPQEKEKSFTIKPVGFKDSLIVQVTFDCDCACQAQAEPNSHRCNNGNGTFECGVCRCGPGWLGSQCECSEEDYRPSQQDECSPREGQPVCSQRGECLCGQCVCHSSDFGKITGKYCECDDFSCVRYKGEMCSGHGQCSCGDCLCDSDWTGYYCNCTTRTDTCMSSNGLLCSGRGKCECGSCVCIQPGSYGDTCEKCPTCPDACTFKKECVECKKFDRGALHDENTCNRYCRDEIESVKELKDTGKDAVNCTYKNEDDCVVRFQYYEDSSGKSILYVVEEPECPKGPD

For `CC(C)[C@H]1C(=O)N[C@@H](CCCN=C(N)N)C(=O)NCC(=O)N[C@@H](CC(=O)O)C(=O)N[C@H](Cc2ccccc2)C(=O)N1C` [Cilengitide, cyclo(-RGDf(NMe)V-)], the “SARS-CoV-2 binding to endothelial cells, dose response” value [1] was “in a dose-dependent manner; also recorded: significantly prevents both attachment to the host and disruption of barrier integrity; also recorded: Statistical significance was found between the no drug control and each Cilengitide treated group”, the “virus (SARS-CoV-2) attachment to human vascular endothelial cells” value [1] was “dose dependently inhibits virus (SARS-CoV-2) attachment to human vascular endothelial cells” and the “SARS-CoV-2 binding to human colorectal epithelial cells” value [2] was “effectively reduces SARS-CoV-2 binding to human colorectal epithelial cells”. The “endothelial barrier permeability (FITC-Dextran, 40 kDa)” value [3] was “limited the occurrence of barrier permeability; also recorded: restored after treating cells with Cilengitide”, the “VE-Cadherin surface expression (mean fluorescence), marker of barrier integrity” value [4] was “prevented VE-cadherin reduction during infection; also recorded: returning VE-cadherin levels back to uninfected levels; also recorded: re-established the barrier integrity; also recorded: barrier permeability was restored back to uninfected levels” and the “internalisation of VE-Cadherin following SARS-CoV-2 infection” value [4] was “internalisation of VE-Cadherin is prevented”. The “Total VE-Cadherin” value [5] was “Total VE-Cadherin remains consistent”.

In the case of `COc1ccc(S(=O)(=O)N[C@@H](CNc2nc(C)nc(N3CCC(c4ccc5c(n4)NCCC5)CC3)c2C)C(=O)O)cc1` [GLPG0187], the “viral (SARS-CoV-2) attachment to human vascular endothelial cells” value [1] is reported as “failed to inhibit viral (SARS-CoV-2) attachment to human vascular endothelial cells” and the “recombinant spike protein binding to integrin αVβ3, comparison of GLPG0187 with Cilengitide” value [6] is reported as “Cilengitide is significantly more effective”.

In the case of `CNc1cccc(CCOc2ccc3c(c2)CN(CC(F)(F)F)C(=O)[C@H](CC(=O)O)C3)n1` [SB-273005], the “viral (SARS-CoV-2) attachment to human vascular endothelial cells” value [1] is reported as “failed to inhibit viral (SARS-CoV-2) attachment to human vascular endothelial cells; also recorded: unsuccessful at reducing SARS-CoV-2 binding to human endothelial cells”.
